Measured values reported in US20040163143A1, “Method for efficiently producing transgenic plant using auxin precursor” (NIPPON PAPER INDUSTRIES CO., LTD., priority 2002, published 2004).

What was measured:
[1] = test system: E. globulus hypocotyl sections; assay: E. globulus gene introduction test, vector pIAH6 (ipt + iaaH + GUS), adventitious bud redifferentiation and GUS staining; format: cell-based, Eucalyptus globulus; conditions: for B/A Redifferentiation ratio / C/A Gene introduction ratio / C/B Selection efficiency: section basis
Protocol: Using a plasmid pIAH6 as a vector having a GUS gene as a model of a desired gene and an ipt gene and an iaaH gene as selectable marker genes, a transformant was produced by carrying out gene introduction into Eucalyptus globulus (hereinafter referred to as “E. globulus”) by the method of the present invention. Seeds of E. globulus from Chile were sterilized by soaking in 70% ethanol for about 1 minute and then soaking with stirring in a 2% aqueous sodium hypochlorite solution for about 4 hours, washed thoroughly with sterile water, inoculated on an MS agar medium to which 0.5 mg/l zeatin had been added and stored in a refrigerator at 4° C. for 2 days to accelerate germination, and then the germination was carried out by culturing at 25° C. under light conditions of about 10 μmol/m^2/s in light intensity. One to two weeks after the inoculation of the seeds onto the germination medium, hypocotyls were collected by cutting out apical buds, cotyledons and roots of the germinated seedlings, and the hypocotyls were cut into sections of about 5 mm to be used as samples for gene introduction and subjected to the following test. A. tumefaciens EHA105 introduced with the plasmid pIAH6 in the above item I was cultured overnight in the YEB liquid medium and then diluted to OD630 =0.5 with EG basal medium, and the sections of hypocotyl prepared in the above were soaked in the cell suspension. Next, each of the sections after removing excess cell suspension was co-cultured with Agrobacterium on an agar medium (agar 8.5 g/l) prepared by adding 1.0 mg/l zeatin, 0.05 mg/l NAA and 40 mg/l acetosyringone to the EG basal medium, at 25° C. for 3 days in the dark to thereby infect each section with the pIAH6-introduced Agrobacterium. In this case, a modified MS medium having an ammonia nitrogen/nitrate nitrogen concentration ratio of 1:3 (5 mM NH4, 15 mM NO3) was supplemented with 20 g/l sucrose and used as the EG basal medium. The sections after infection culturing were put on an EG basal agar medium (agar 8.5 g/l) supplemented with 500 mg/l ticarcillin and 1 μM or 10 μM of an auxin precursor analogue NAM, and the culturing was continued at 25° C. under light conditions of 30 to 40 μmol/m^2/s in light intensity while sub-culturing at an interval of 2 weeks using the same medium. Among these sections, the quicker ones redifferentiated adventitious buds after about 2 months of the Agrobacterium infection. Three months after the Agrobacterium infection, in order to examine expression of the GUS gene used as a model of the desired gene, the redifferentiated adventitious buds were subjected to a GUS staining test in accordance with the method of Jefferson et al. (Plant Mol. Biol. Rep., 5: 387-405 (1987)), and the degree of formation of desired gene-introduced adventitious buds was judged by examining the number of stained adventitious buds (the number of adventitious buds expressing the desired gene). An E. globulus gene introduction test was carried out in the same manner as in Example 1, except that the hypocotyl sections after the Agrobacterium infection were cultured using the EG basal agar medium (agar 8.5 g/l) supplemented with 500 mg/l ticarcillin and 0 μM, 1 μM or 10 μM NAA as auxin.

[2] = test system: E. globulus hypocotyl sections; assay: E. globulus gene introduction test, vector pIPT10 (ipt only + GUS), adventitious bud redifferentiation and GUS staining; format: cell-based, Eucalyptus globulus; conditions: for B/A Redifferentiation ratio / C/A Gene introduction ratio / C/B Selection efficiency: section basis
Protocol: Seeds of E. globulus from Chile were sterilized by soaking in 70% ethanol for about 1 minute and then soaking with stirring in a 2% aqueous sodium hypochlorite solution for about 4 hours, washed thoroughly with sterile water, inoculated on an MS agar medium to which 0.5 mg/l zeatin had been added and stored in a refrigerator at 4° C. for 2 days to accelerate germination, and then the germination was carried out by culturing at 25° C. under light conditions of about 10 μmol/m^2/s in light intensity. One to two weeks after the inoculation of the seeds onto the germination medium, hypocotyls were collected by cutting out apical buds, cotyledons and roots of the germinated seedlings, and the hypocotyls were cut into sections of about 5 mm to be used as samples for gene introduction and subjected to the following test. A. tumefaciens EHA105 introduced with the plasmid pIAH6 in the above item I was cultured overnight in the YEB liquid medium and then diluted to OD630 =0.5 with EG basal medium, and the sections of hypocotyl prepared in the above were soaked in the cell suspension. Next, each of the sections after removing excess cell suspension was co-cultured with Agrobacterium on an agar medium (agar 8.5 g/l) prepared by adding 1.0 mg/l zeatin, 0.05 mg/l NAA and 40 mg/l acetosyringone to the EG basal medium, at 25° C. for 3 days in the dark to thereby infect each section with the pIAH6-introduced Agrobacterium. In this case, a modified MS medium having an ammonia nitrogen/nitrate nitrogen concentration ratio of 1:3 (5 mM NH4, 15 mM NO3) was supplemented with 20 g/l sucrose and used as the EG basal medium. The sections after infection culturing were put on an EG basal agar medium (agar 8.5 g/l) supplemented with 500 mg/l ticarcillin and 1 μM or 10 μM of an auxin precursor analogue NAM, and the culturing was continued at 25° C. under light conditions of 30 to 40 μmol/m^2/s in light intensity while sub-culturing at an interval of 2 weeks using the same medium. Among these sections, the quicker ones redifferentiated adventitious buds after about 2 months of the Agrobacterium infection. Three months after the Agrobacterium infection, in order to examine expression of the GUS gene used as a model of the desired gene, the redifferentiated adventitious buds were subjected to a GUS staining test in accordance with the method of Jefferson et al. (Plant Mol. Biol. Rep., 5: 387-405 (1987)), and the degree of formation of desired gene-introduced adventitious buds was judged by examining the number of stained adventitious buds (the number of adventitious buds expressing the desired gene). An E. globulus gene introduction test was carried out in the same manner as in Example 1, except that the hypocotyl sections after the Agrobacterium infection were cultured using the EG basal agar medium (agar 8.5 g/l) supplemented with 500 mg/l ticarcillin and 0 μM, 1 μM or 10 μM NAA as auxin. An E. globulus gene introduction test was carried out in the same manner as in Example 1 or Comparative Example 1, except that a plasmid pIPT10 having only the ipt gene as the selectable marker gene was used as the vector. Also, the vector also has the GUS gene as a model of the desired gene. Structure of T-DNA region of the pIPT10 used in this case is shown in FIG. 2, and results of the gene introduction test are shown in Table 3.

[3] = NAA 1 μM in medium, 62 sections tested
[4] = NAA 10 μM in medium, 40 sections tested

Compound: O=C(O)Cc1cccc2ccccc12 [NAA, naphthaleneacetic acid]
- B Adventitious bud differentiated (number of sections) [1, 3]: 9 number of sections
- C GUS + adventitious bud differentiated (number of sections) [1, 3]: 2 number of sections
- B/A Redifferentiation ratio ([1]; NAA 1 μM in medium): 14.5%
- C/A Gene introduction ratio ([1]; NAA 1 μM in medium): 3.2%
- C/B Selection efficiency ([1]; NAA 1 μM in medium): 22.2%
- B Adventitious bud differentiated (number of sections) [1, 4]: 13 number of sections
- C GUS + adventitious bud differentiated (number of sections) [1, 4]: 1 number of sections
- B/A Redifferentiation ratio ([1]; NAA 10 μM in medium): 32.5%
- C/A Gene introduction ratio ([1]; NAA 10 μM in medium): 2.5%
- C/B Selection efficiency ([1]; NAA 10 μM in medium): 7.7%
- B Adventitious bud differentiated (number of sections) ([2]; additive 1 μM in medium): 9 number of sections
- C GUS + adventitious bud differentiated (number of sections) ([2]; additive 1 μM in medium): 1 number of sections
- B/A Redifferentiation ratio ([2]; additive 1 μM in medium): 20.5%
- C/A Gene introduction ratio ([2]; additive 1 μM in medium): 2.3%
- C/B Selection efficiency ([2]; additive 1 μM in medium): 11.1%
- B Adventitious bud differentiated (number of sections) ([2]; additive 10 μM in medium): 7 number of sections
- C GUS + adventitious bud differentiated (number of sections) ([2]; additive 10 μM in medium): 0 number of sections
- B/A Redifferentiation ratio ([2]; additive 10 μM in medium): 15.9%
- C/A Gene introduction ratio ([2]; additive 10 μM in medium): 0.0%
- C/B Selection efficiency ([2]; additive 10 μM in medium): 0%
